These are literature values, as cited in US10647965B2, “Hetero-transglycosylase and uses thereof” (BASF SE, priority 2013, dated 2020).

A word on the Km: it is the concentration of substrate that gives half-maximal velocity.

This series deals with XTHs (xyloglucan endotransglucosylases). Particulars: read-out: KM for XXXGol, comparison value, donor not stated.

SMILES strings stand for the structures.

With `OC[C@@H](O)[C@@H](O[C@@H]1O[C@H](CO[C@H]2OC[C@@H](O)[C@H](O)[C@H]2O)[C@@H](O[C@@H]2O[C@H](CO[C@H]3OC[C@@H](O)[C@H](O)[C@H]3O)[C@@H](O[C@@H]3O[C@H](CO[C@H]4OC[C@@H](O)[C@H](O)[C@H]4O)[C@@H](O)[C@H](O)[C@H]3O)[C@H](O)[C@H]2O)[C@H](O)[C@H]1O)[C@H](O)[C@@H](O)CO` [XXXGol, Xyl3.Glc3.glucitol], the Km was 50 to 200 µM.
